The source of these data is US20230295157A1, “3-(1H-IMIDAZOL-2-YL)-2,3,8,8A-TETRAHYDROINDOLIZIN-5(1H)-ONE DERIVATIVES USEFUL AS FACTOR XIA INHIBITORS” (JANSSEN PHARMACEUTICA NV, priority 2020, published 2023).

The IC50 is the concentration that gives 50% inhibition.

Read-outs that look alike come from different tables or passages of the source.

One test deals with human plasma kallikrein (Homo sapiens (Human), UniProt P03952). Put plainly: Kallikrein inhibition assay (FLINT) utilizing a quenched AMC peptide substrate. In kind it is biochemical. Particulars: 30 min preincubation, kinetic reads over 30 min, Z-Gly-Pro-Arg-AMC substrate 50 μM; read-out: Kallikrein Kin Inh IC50. As for the experimental part:
Biological Example 2: Kallikrein Inhibition Assay Utilizing a Quenched AMC Peptide Substrate A fluorescence intensity (FLINT) based assay was used to monitor inhibition of human plasma kallikrein.
The Kallikrein FLINT assay was used with the following Z-Gly-Pro-Arg-AMC assay buffer: 50 mM Tris, pH 7.5, 100 mM NaCl, 5 mM CaCl2), 0.1 mg/mL BSA, 0.03% CHAPS. Assay buffer was prepared by mixing all ingredients fresh. 2×Z-Gly-Pro-Arg-AMC peptide substrate was prepared by diluting 10 mM stock into 1×assay buffer for a 100 μM working concentration (50 μM final concentration). The 2×kallikrein stock solution was prepared by diluting 14.76 μM stock in 1×assay buffer for a 4 nM working stock solution (2 nM final concentration).
Test compound(s) were run in an 11-point, 3-fold serial dilution with a final top compound concentration of 1 μM. Final DMSO in assay was 2%. Plasma kallikrein was pre-incubated for 30-minute with compound and then 50 μM substrate was added to initiate the reaction. The assay was run with kinetic (KIN) reads at 5 min intervals over 30 minutes. […] More specifically, the assay was run as follows: • 100 nL of 0.1 mM test compound was dispensed into black 384-well non-binding Greiner BioOne 784900 plate for 1 μM final concentration; • 5 μL of 1×assay buffer was dispensed to columns 24 (low control) and 5 μL 2×human kallikrein enzyme solution was dispensed to columns 1-23 (column 23 high control); • the plate was centrifuged with a “cover” plate at 500 rpm for 1 min • the plate was pre-incubated for 30 minutes at room temperature with plate covered; • 5 μL of 2×Z-Gly-Pro-Arg-AMC peptide substrate was dispensed into the entire plate, columns 1-24; • the plate was centrifuged with a “cover” plate at 500 rpm for 1 min; • the plate was read monitoring fluorescence intensity on the BMG PHERAStar at room temperature, using fluorescence module 340 nm/440 nm.
(§1) Percent inhibition (IC50) curves were generated per compound tested, and data was analyzed using a 4-parameter logistic fit using GeneData Screener. The relative fluorescence unit (RFU) values were normalized to percent inhibition using the following equation:
% inhibition=((HC-LC)−(compound-LC)\(HC-LC))*100 where LC—low control=mean signal of human kallikrein enzyme or 100% inhibition of human kallikrein enzyme; HC—high control=mean signal of Factor XIa+Z-Gly-Pro-Arg-AMC peptide substrate with DMSO only.
(§2) An 11-point dose response curve for the test compound(s) was generated using GENDATA to determine IC50 value based on the following equation:
Y=Bottom+(Top-Bottom)/(1+10^((logIC50−X)*HillSlope)) where Y is the % inhibition in the presence of X inhibitor concentration, Top=high control=mean signal of human kallikrein enzyme+Z-Gly-Pro-Arg-AMC peptide substrate with DMSO only; Bottom=low control−mean signal of no human kallikrein enzyme or 100% inhibition of human kallikrein enzyme; HillSlope—Hill coefficient; and IC50=concentration of compound with 50% inhibition in relation to top/high control.

A further test deals with Factor XIa (Homo sapiens (Human), UniProt P03951). As to the kind of experiment: Factor XIa inhibition assay (FLINT) utilizing a fluorophore-quencher pair peptide substrate. In kind it is biochemical. As to conditions: 30 min preincubation, kinetic reads over 30 min, read-out: FXIa Kin Inh IC50.
Chain of Factor XIa (P03951 388-625): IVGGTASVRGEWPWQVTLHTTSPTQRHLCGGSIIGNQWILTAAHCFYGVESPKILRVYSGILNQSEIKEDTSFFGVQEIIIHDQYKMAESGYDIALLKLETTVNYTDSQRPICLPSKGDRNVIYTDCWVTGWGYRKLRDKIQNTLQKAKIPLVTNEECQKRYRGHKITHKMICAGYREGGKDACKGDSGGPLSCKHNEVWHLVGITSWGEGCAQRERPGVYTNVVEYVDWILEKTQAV
Chain of Factor XIa (P03951 19-387 partner): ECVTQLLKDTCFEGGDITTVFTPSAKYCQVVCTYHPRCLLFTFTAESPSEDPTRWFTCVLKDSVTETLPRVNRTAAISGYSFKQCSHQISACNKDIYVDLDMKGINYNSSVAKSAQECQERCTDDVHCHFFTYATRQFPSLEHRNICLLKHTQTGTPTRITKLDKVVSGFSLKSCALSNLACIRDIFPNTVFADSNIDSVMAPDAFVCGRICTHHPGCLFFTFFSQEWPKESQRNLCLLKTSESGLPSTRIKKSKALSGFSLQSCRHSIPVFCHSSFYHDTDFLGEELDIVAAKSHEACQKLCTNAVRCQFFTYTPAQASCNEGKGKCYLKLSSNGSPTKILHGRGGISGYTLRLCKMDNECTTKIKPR
Text: Biological Example 1: Factor XIa Inhibition Assay Utilizing a Fluorophore-Quencher Pair Peptide Substrate
A fluorescence intensity (FLINT) based assay was used to monitor inhibition of Factor XIa. The peptide substrate, 5Fam-[…]-K5Tamra (purchased from New England Peptide) was chosen based on the FXI sequence. Conversion of zymogen […]. The custom peptide used in this assay was based on the Arg146 cleavage site of FXI. The peptide substrate was designed with a fluorophore-quencher pair, where the fluorescence is quenched until FXIa cleaves the 8-mer peptide after the Arg residue.
The Factor XIa FLINT assay was used with the following 5Fam-[…]-K5Tamra assay buffer: 50 mM Tris, pH 7.5, 100 mM NaCl, 5 mM CaCl2), 0.1 mg/mL BSA, 0.03% CHAPS. Assay buffer was prepared by mixing all ingredients fresh. 5Fam-[…]-K5Tamra peptide substrate was first prepared at 10 mM in 100% DMSO, then diluted to 3 mM in 100% DMSO. Assay buffer was then added directly to the 3 mM stock of substrate to prepare the 30 μM 2× working concentration (15 μM final concentration). The 2×Factor XIa stock solution was prepared by diluting 6.562 μM stock in 1×assay buffer for a 200 μM working stock solution (100 μM final concentration).
Test compound(s) were run in an 11-point, 3-fold serial dilution with a final top compound concentration of 100 nM. Final DMSO in assay was 2%. FXIa was preincubated with compound for 30-minutes and then substrate was added to initiate the reaction. The assay was run with kinetic (KIN) reads at 5 min intervals over 30 minutes. The time course was linear using 100 μM FXIa greater than 30 minutes. More specifically, the assay was run as follows: • 100 nL of 0.01 mM test compound was dispensed into black 384 well non-binding Greiner BioOne 784900 plate for 0.1 μM final concentration; • 5 μL of 1×assay buffer was dispensed to column 24 (low control) and 5 μL 2×Factor XIa solution was dispensed to columns 1-23 (column 23 high control); • the plate was centrifuged with a “cover” plate at 500 rpm for 1 min • the plate was pre-incubated for 30 minutes at room temperature with plate covered; • 5 μL of 2×5Fam-[…]-K5Tamra peptide substrate was dispensed into the entire plate, columns 1-24; • the plate was centrifuged with a “cover” plate at 500 rpm for 1 min; • the plate was read monitoring fluorescence intensity on the BMG PHERAStar at room temperature, using fluorescence module 485 nm/520 nm.
as §1
% inhibition=((HC-LC)−(compound−LC)/(HC-LC))*100
where LC—low control=mean signal of no Factor XIa or 100% inhibition of Factor XIa; HC—high control=mean signal of Factor XIa+5Fam-[…]-K5Tamra peptide substrate with DMSO only.
as §2
Y=Bottom+(Top-Bottom)/(1+10^((logIC50-X)*HillSlope))
where Y is the % inhibition in the presence of X inhibitor concentration, Top=high control=mean signal of Factor XIa+5Fam-[…] K5Tamra peptide substrate with DMSO only; Bottom=low control−mean signal of no Factor XIa or 100% inhibition of Factor XIa; HillSlope—Hill coefficient; and IC50=concentration of compound with 50% inhibition in relation to top/high control.
Representative compounds of the present invention were tested according to the procedure described in Biological Example 1 and Biological Example 2 above, with results as listed in Table 3, below.

Setting [1] is: 5Fam-[…]-K5Tamra substrate 15 μM.

Chain of human plasma kallikrein (P03952 391-638): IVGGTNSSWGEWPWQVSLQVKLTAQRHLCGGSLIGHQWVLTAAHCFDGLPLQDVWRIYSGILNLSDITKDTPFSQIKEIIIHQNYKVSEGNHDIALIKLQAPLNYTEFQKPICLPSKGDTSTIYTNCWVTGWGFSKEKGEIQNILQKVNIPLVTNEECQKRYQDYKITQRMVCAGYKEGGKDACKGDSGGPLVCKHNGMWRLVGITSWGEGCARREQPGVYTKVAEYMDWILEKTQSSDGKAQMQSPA
Chain of human plasma kallikrein (P03952 20-390 partner): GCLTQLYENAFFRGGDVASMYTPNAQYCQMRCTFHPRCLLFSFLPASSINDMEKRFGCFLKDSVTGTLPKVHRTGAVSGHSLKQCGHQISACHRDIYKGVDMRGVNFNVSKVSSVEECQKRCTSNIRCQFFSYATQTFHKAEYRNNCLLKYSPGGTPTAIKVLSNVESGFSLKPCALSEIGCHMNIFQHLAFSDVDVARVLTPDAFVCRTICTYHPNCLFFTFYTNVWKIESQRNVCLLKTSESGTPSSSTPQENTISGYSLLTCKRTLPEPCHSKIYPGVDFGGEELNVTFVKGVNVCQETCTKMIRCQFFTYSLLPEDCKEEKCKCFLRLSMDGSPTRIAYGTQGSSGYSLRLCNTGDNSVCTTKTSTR

On to `O=C1C=C(c2c(-n3cnnn3)ccc(Cl)c2F)CC2CC[C@H](c3nc(F)c(-c4ccnc(N[C@H]5CCOC5)c4F)[nH]3)N12` (relative stereo) [Example 77, (3R*)-7-(3-chloro-2-fluoro-6-(1H-tetrazol-1-yl)phenyl)-3-(4-fluoro-5-(3-fluoro-2-(((S)-tetrahydrofuran-3-yl)amino)pyridin-4-yl)-1H-imidazol-2-yl)-2,3,8,8a-tetrahydroindolizin-5(1H)-one], for which the IC50 on human plasma kallikrein turned out to be 5 nM; at Factor XIa (setting [1]), 1.3 nM.
`O=C1C=C(c2c(-n3cnnn3)ccc(Cl)c2F)C[C@H]2CC[C@H](c3ncc(-c4ccnc(-n5cnnc5)c4F)[nH]3)N12` (relative stereo) [Example 78, (3R*,8aR)-7-(3-chloro-2-fluoro-6-(1H-tetrazol-1-yl)phenyl)-3-(5-(3-fluoro-2-(4H-1,2,4-triazol-4-yl)pyridin-4-yl)-1H-imidazol-2-yl)-2,3,8,8a-tetrahydroindolizin-5(1H)-one]: the IC50 at human plasma kallikrein worked out at 136 nM; at Factor XIa (setting [1]) it was 40.9 nM.
On to `C[C@H](Oc1nccc(-c2cnc([C@@H]3CC[C@H]4CC(c5c(-n6cnnn6)ccc(Cl)c5F)=CC(=O)N43)[nH]2)c1F)c1nnco1` (relative stereo) [Example 127, (3S*,8aS*)-3-(5-(2-((S*)-1-(1,3,4-oxadiazol-2-yl)ethoxy)-3-fluoropyridin-4-yl)-1H-imidazol-2-yl)-7-(3-chloro-2-fluoro-6-(1H-tetrazol-1-yl)phenyl)-2,3,8,8a-tetrahydroindolizin-5(1H)-one], for which the IC50 turned out to be 12.9 nM on human plasma kallikrein and 10.9 nM at Factor XIa (setting [1]).
In the same order, the values of `C[C@H](Oc1nccc(-c2cnc([C@@H]3CC[C@@H]4CC(c5c(-n6cnnn6)ccc(Cl)c5F)=CC(=O)N43)[nH]2)c1F)c1nnco1` (relative stereo) [Example 128, (3S*,8aR*)-3-(5-(2-((S*)-1-(1,3,4-oxadiazol-2-yl)ethoxy)-3-fluoropyridin-4-yl)-1H-imidazol-2-yl)-7-(3-chloro-2-fluoro-6-(1H-tetrazol-1-yl)phenyl)-2,3,8,8a-tetrahydroindolizin-5(1H)-one] are 12.8 nM and 6.1 nM.
On to `[2H]c1c(NC)nc(F)c(-c2cnc([C@H]3CC[C@@H]4CC(c5c(-n6cnnn6)ccc(Cl)c5F)=CC(=O)N43)[nH]2)c1[2H]` (relative stereo) [Example 133, (3R*,8aR)-7-(3-chloro-2-fluoro-6-(1H-tetrazol-1-yl)phenyl)-3-(5-(2-fluoro-6-(methylamino)pyridin-3-yl-4,5-d2)-1H-imidazol-2-yl)-2,3,8,8a-tetrahydroindolizin-5(1H)-one], for which the IC50 was found to be 7.5 nM at human plasma kallikrein and 0.7 nM on Factor XIa (setting [1]).
With `O=C1C=C(c2c(-n3cnnn3)ccc(Cl)c2F)C[C@H]2CC[C@H](c3ncc(-c4c[nH]c5ccccc45)[nH]3)N12` (relative stereo) [Example 137, (3R*,8aR)-3-(5-(1H-indol-3-yl)-1H-imidazol-2-yl)-7-(3-chloro-2-fluoro-6-(1H-tetrazol-1-yl)phenyl)-2,3,8,8a-tetrahydroindolizin-5(1H)-one], the IC50 on human plasma kallikrein was 7.7 nM; on Factor XIa (setting [1]), 4.6 nM.
For `O=C1C=C(c2c(-n3cnnn3)ccc(Cl)c2F)C[C@H]2CC[C@@H](c3ncc(-c4ccnc(C5(O)CC5)c4Cl)[nH]3)N12` (relative stereo) [Example 155, (3*S,8aR)-3-(5-(3-chloro-2-(1-hydroxycyclopropyl)pyridin-4-yl)-1H-imidazol-2-yl)-7-(3-chloro-2-fluoro-6-(1H-tetrazol-1-yl)phenyl)-2,3,8,8a-tetrahydroindolizin-5(1H)-one], the 50% inhibitory concentration (IC50) came to 52.4 nM on human plasma kallikrein and 4.9 nM at Factor XIa (setting [1]).
In the same order, the values of `O=C1C=C(c2c(-n3cnnn3)ccc(Cl)c2F)C[C@H]2CC[C@H](c3ncc(-c4ccnc(OC[C@@H]5COCCO5)c4F)[nH]3)N12` (relative stereo) [Example 156, (3*R,8aR)-3-(5-(2-(((S)-1,4-dioxan-2-yl)methoxy)-3-fluoropyridin-4-yl)-1H-imidazol-2-yl)-7-(3-chloro-2-fluoro-6-(1H-tetrazol-1-yl)phenyl)-2,3,8,8a-tetrahydroindolizin-5(1H)-one] are 19.1 nM and 13.8 nM.
Turning to `O=C1C=C(c2c(-n3cnnn3)ccc(Cl)c2F)C[C@H]2CC[C@@H](c3ncc(-c4ccnc(C(F)(F)CO)c4F)[nH]3)N12` (relative stereo) [Example 160, (3*S,8aR)-7-(3-chloro-2-fluoro-6-(1H-tetrazol-1-yl)phenyl)-3-(5-(2-(1,1-difluoro-2-hydroxyethyl)-3-fluoropyridin-4-yl)-1H-imidazol-2-yl)-2,3,8,8a-tetrahydroindolizin-5(1H)-one], the IC50 at human plasma kallikrein turned out to be 27.8 nM; on Factor XIa (setting [1]), 8.4 nM.
On to `C[C@H](C#N)c1nccc(-c2cnc([C@@H]3CCC4CC(c5c(-n6cnnn6)ccc(Cl)c5F)=CC(=O)N43)[nH]2)c1F` (relative stereo) [Example 163, (2*S)-2-(4-(2-((3S)-7-(3-chloro-2-fluoro-6-(1H-tetrazol-1-yl)phenyl)-5-oxo-1,2,3,5,8,8a-hexahydroindolizin-3-yl)-1H-imidazol-5-yl)-3-fluoropyridin-2-yl)propanenitrile], for which the figures for the IC50 on human plasma kallikrein and on Factor XIa (5Fam-KLTRAETV-K5Tamra substrate 15 μM) were 28.8 nM and 7.4 nM, respectively.
